This is an account of results in PubChem BioAssay AID1918993 (Molecular Pharmacology Branch, DTP, NCI, 2023).

Structures are written as SMILES. Several values for one entry are separate records, joined by “and”; a condition that tells them apart may be missing. Equal values may be shown once.

This assay deals with 233499-124-R-J3-PDC complex spheroid growth. In words: Anticancer human tumor 233499-124-R-J3-PDC patient-derived colon adenocarcinoma cell line growth inhibition [AhR]. The conditions noted are these: for viability, T/C: stronger effect = lower value. The source says: Multicellular complex tumor spheroid response to aryl hydrocarbon receptor antagonists in combination with a variety of drugs and investigational agents in selected tumor cell lines
The current study was undertaken to assess response to aryl hydrocarbon receptor antagonists in combination with standard-of-care drugs and investigational agents in solid tumor complex spheroid models. Complex spheroids include a stromal component modeled by human endothelial cells (HUVEC) and fibroblasts modeled by human mesenchymal stem cells (MSCs). The concentration ranges selected for each drug and investigational agent were based upon clinically achievable concentrations if the clinical Cmax of the agent was known.
Compounds. The drugs and investigational agents: BAY 2416964 (NSC825713), GNF351 (NSC835774), CH-223191 (NSC835775), CPI-455 (NSC825282), aza-TdCyd (NSC777586), decitabine (NSC127716), belinostat (NSC758774), entinostat (NSC756642), pevonedistat (NSC761192), tazemetostat (NSC777109), talazoparib (NSC765396), olaparib (NSC753686), selinexor (NSC780203), nedisertib (M3814, NSC802822), bortezomib (NSC756655), venetoclax (NSC766270), doxorubicin (NSC123127), elimusertib (BAY189344, NSC800525), ceralasertib (AZD6738, NSC777638), TAK-243 (NSC785004), alisertib (NSC759677), etoposide (NSC141540), topotecan (NSC609699), eribulin (NSC707389), gemcitabine (NSC613327), carboplatin (NSC241240), cisplatin (NSC119875), and SN-38 (NSC673596) were obtained from the National Cancer Institute (NCI) Developmental Therapeutics Program Chemical Repository (32). The FDA-approved anticancer drug set is available from the Developmental Therapeutics Program at https://dtp.cancer.gov/organization/dscb/obtaining/available plates.htm. […] The stock solutions were prepared in dimethyl sulfoxide (DMSO, Sigma-Aldrich, St. Louis, MO, cat. D2650), except for the platinum compounds which were prepared in saline (Quality Biological, Gaithersburg, MD, cat. 114-055-101), at 800-fold the tested concentration and stored at -70 degrees C prior to their use. All drugs and investigational agents were tested over a range starting from a high concentration at or near the clinical Cmax and decreasing in half-log increments. If the clinical Cmax for an agent had not been determined, the highest concentration tested was 10 microM (Table 1).
Cell Culture. All cells were maintained in an incubator at 37 degrees C and 5% CO2 with 95% humidity. The PDC lines were cultured according to standard operating procedures established by the NCI PDMR (https://pdmr.cancer.gov). Briefly, all PDCs were thawed and cultured in Matrigel-coated flasks prepared with a working solution of 1X Ham's F-12 nutrient mix, without supplementation (Invitrogen, Waltham, MA, cat. 11765054), 100 U/mL penicillin-streptomycin (Invitrogen, cat. 15140122), and 2.5% Matrigel (Corning Inc., Corning, NY, cat. 354248) for the first three passages. All PDCs were cultured in complete DMEM/F-12 media containing advanced DMEM/F-12 (Invitrogen, cat. 12634028), 4.9% defined fetal bovine serum, heat inactivated (HyClone Laboratories Inc., Logan, UT, cat. SH30070.03HI), 389 ng/mL hydrocortisone (Sigma-Aldrich, cat. H4001), 9.7 ng/mL human EGF recombinant protein (Invitrogen, cat. PHG0313), 23.4 microg/mL adenine (Sigma-Aldrich, cat. A2786), 97.3 U/mL penicillin-streptomycin (Invitrogen, cat. 15140122), 1.9 mM L-glutamine (Invitrogen, cat. 25030081), and 9.7 microM Y-27632 dihydrochloride (Tocris Bioscience, Bristol, United Kingdom, cat. 1254). The PDCs were cultured in complete DMEM/F12 media without 10 microM Y-27632 dihydrochloride for at least two passages prior to the screen. The established cell lines NCI-H1341 and […] were cultured in DMEM/F-12, HEPES (Invitrogen, cat. 11330032), 5% defined fetal bovine serum (HyClone Laboratories Inc., cat. SH30070.03), ITS premix universal culture supplement [insulin (5 microg/mL), transferrin (5 microg/mL), and selenious acid (5 ng/mL)] […]

Setting [1] is: curve of first compound, second compound 0.1 µM.
Setting [2] is: curve of first compound, second compound 0.316 µM.
Where [3] appears, read: curve of first compound, second compound 1 µM.
[4] abbreviates: curve of first compound, second compound 3.16 µM.
Where [5] appears, read: curve of first compound, second compound 10 µM.
[6] abbreviates: second compound 0.1 µM, first compound 0.0316 µM.
Setting [7] is: second compound 0.1 µM, first compound 0.1 µM.
Where [8] appears, read: second compound 0.1 µM, first compound 0.316 µM.
The mark [9] stands for this setting: second compound 0.1 µM, first compound 1 µM.
The mark [10] stands for this setting: second compound 0.316 µM, first compound 0.0316 µM.
Where [11] appears, read: second compound 0.316 µM, first compound 0.1 µM.
The mark [12] stands for this setting: second compound 0.316 µM, first compound 0.316 µM.
The mark [13] stands for this setting: second compound 0.316 µM, first compound 1 µM.
Where [14] appears, read: second compound 1 µM, first compound 0.0316 µM.
Where [15] appears, read: second compound 1 µM, first compound 0.1 µM.
Where [16] appears, read: second compound 1 µM, first compound 0.316 µM.
The mark [17] stands for this setting: second compound 1 µM, first compound 1 µM.
Where [18] appears, read: second compound 3.16 µM, first compound 0.0316 µM.
Setting [19] is: second compound 3.16 µM, first compound 0.1 µM.
Setting [20] is: second compound 3.16 µM, first compound 0.316 µM.
The mark [21] stands for this setting: second compound 3.16 µM, first compound 1 µM.
Where [22] appears, read: second compound 10 µM, first compound 0.0316 µM.
Setting [23] is: second compound 10 µM, first compound 0.1 µM.
Setting [24] is: second compound 10 µM, first compound 0.316 µM.
Where [25] appears, read: second compound 10 µM, first compound 1 µM.
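Also: spheroids exposed to agents for seven days before reading.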

In the case of `CC(C)c1c(-c2ccccc2)nc2c(C#N)c[nH]n2c1=O`, the viability, T/C is 101% and 108% and 114% (compound 0.0316 µM); 105% (2×) and 103% (compound 0.1 µM); 107% and 96% and 113% (compound 0.316 µM); 94% and 102% and 93.5% (compound 1 µM); 98.7% and 110% and 117% (compound 3.16 µM); 117% and 124% and 105% (compound 10 µM). Moreover, the half-maximal inhibitory concentration (IC50) (curve of compound) was > 10 µM.

On to `CC(CO)NC(=O)c1cc(-c2ccc(Cl)cc2)nn(-c2cnn(C)c2)c1=O` (stereo unspecified), for which the viability, T/C was 94.2% [middle of 21 runs] (compound 0.316 µM) and 91.3% [middle of 19 runs] (compound 3.16 µM). In addition, the half-maximal inhibitory concentration (IC50) (compound alone, run of 07/12/2022) was > 10 µM.

For `CC1COCCN1c1cc(C2(S(C)(=N)=O)CC2)nc(-c2ccnc3[nH]ccc23)n1` (stereo unspecified), the viability, T/C reads like this: (compound 0.0316 µM) 103% and 90.3% and 112%; (compound 0.1 µM) 108% and 97% and 92.9%; (compound 0.316 µM) 92.2% and 95% and 95.2%; (compound 1 µM) 105% and 97.5% and 94.2%; (compound 3.16 µM) 89.7% and 90.8% and 96.2%; (compound 10 µM) 91.8% and 83.7% and 83.1%. Further, the IC50 (curve of compound) was > 10 µM.

As to `COc1ccc([C@@H](O)c2cc(-c3ncnc4cc(N5CCOCC5)ccc34)c(F)cc2Cl)nn1`, the viability, T/C is 99.4% and 94% and 95.8% (compound 0.0316 µM); 95.7% and 89% and 102% (compound 0.1 µM); 94.3% and 102% and 98.5% (compound 0.316 µM); 99.9% and 87% and 104% (compound 1 µM); 92.7% and 89.7% and 82.3% (compound 3.16 µM); 98.3% and 91% and 81.9% (compound 10 µM). In addition, the IC50 (curve of compound) was > 10 µM.

On to `Cc1ccccc1N=Nc1ccc(NC(=O)c2ccnn2C)c(C)c1`, for which the viability, T/C reads like this: (compound 0.1 µM) 102% [middle of 20 runs]; (compound 10 µM) 97.8% [middle of 20 runs]. Under “compound alone, run of 07/26/2022”, the IC50 is > 10 µM.

For `Cc1cncc(-c2nc(NCCc3c[nH]c4ccccc34)c3ncn(C(C)C)c3n2)c1`, the viability, T/C (compound 0.1 µM) was 96.2% [middle of 20 runs]; the viability, T/C (compound 0.316 µM) was 86.2% [middle of 19 runs]; the viability, T/C (compound 1 µM) was 78.4% [middle of 20 runs]. For the same molecule, under “compound alone, run of 07/18/2022”, the IC50 was 4.98 µM [middle of 23 runs].

Consider `COc1cccc2c1C(=O)c1c(O)c3c(c(O)c1C2=O)CC(O)(C(=O)CO)CC3OC1CC(N)C(O)C(C)O1` (stereo unspecified) + CC(CO)NC(=O)c1cc(-c2ccc(Cl)cc2)nn(-c2cnn(C)c2)c1=O, for which the IC50 runs as follows: under setting [1], 4.49 µM; under setting [2], 5.32 µM; under setting [3], 3.76 µM; under setting [4], 3.43 µM; under setting [5], 1.62 µM. Also, the viability, T/C was 103% under setting [6]; 104% under setting [7]; 87.8% under setting [8]; 78.3% under setting [9]; 58.3% (second compound 0.1 µM, first compound 3.16 µM); 31.8% (second compound 0.1 µM, first compound 10 µM). Also, the viability, T/C is 98.3% under setting [10]; 100% under setting [11]; 90.4% under setting [12]; 81.6% under setting [13]; 65.1% (second compound 0.316 µM, first compound 3.16 µM); 32.5% (second compound 0.316 µM, first compound 10 µM). Besides, the viability, T/C was 96.7% under setting [14]; 111% under setting [15]; 98.4% under setting [16]; 70.7% under setting [17]; 58.9% (second compound 1 µM, first compound 3.16 µM); 27.1% (second compound 1 µM, first compound 10 µM). Besides, the viability, T/C by setting is: under setting [18], 85.6%; under setting [19], 99.2%; under setting [20], 88.7%; under setting [21], 57.6%; (second compound 3.16 µM, first compound 3.16 µM) 59.3%; (second compound 3.16 µM, first compound 10 µM) 27%. Besides, the viability, T/C is, setting by setting: under setting [22], 90.5%; under setting [23], 76.1%; under setting [24], 72.8%; under setting [25], 58%; (second compound 10 µM, first compound 3.16 µM) 40.3%; (second compound 10 µM, first compound 10 µM) 6.01%.

Consider `Nc1ncn(C2CC(O)C(CO)O2)c(=O)n1` (stereo unspecified) + CC(CO)NC(=O)c1cc(-c2ccc(Cl)cc2)nn(-c2cnn(C)c2)c1=O, for which the IC50 under setting [1] is > 1 µM; the IC50 under setting [2] was > 1 µM; the IC50 under setting [3] was > 1 µM; the IC50 under setting [4] is > 1 µM; the concentration for half-maximal inhibition (IC50) under setting [5] was > 1 µM. Besides, the viability, T/C (second compound 0.1 µM, first compound 0.00316 µM) was 103%; the viability, T/C (second compound 0.1 µM, first compound 0.01 µM) was 103%; the viability, T/C under setting [6] is 104%; the viability, T/C under setting [7] is 94.1%; the viability, T/C under setting [8] is 93%; the viability, T/C under setting [9] is 94.2%. Besides, the viability, T/C is 98.2% (second compound 0.316 µM, first compound 0.00316 µM); 103% (second compound 0.316 µM, first compound 0.01 µM); 79.4% under setting [10]; 92.9% under setting [11]; 91% under setting [12]; 95.5% under setting [13]. For the same molecule, the viability, T/C runs as follows: (second compound 1 µM, first compound 0.00316 µM) 92.3%; (second compound 1 µM, first compound 0.01 µM) 94.5%; under setting [14], 88.9%; under setting [15], 72.5%; under setting [16], 85.6%; under setting [17], 91.9%. Besides, the viability, T/C (second compound 3.16 µM, first compound 0.00316 µM) is 95.9%; the viability, T/C (second compound 3.16 µM, first compound 0.01 µM) was 104%; the viability, T/C under setting [18] was 90.4%; the viability, T/C under setting [19] is 89.5%; the viability, T/C under setting [20] is 87.1%; the viability, T/C under setting [21] was 83.2%. The viability, T/C is 89.2% (second compound 10 µM, first compound 0.00316 µM); 79.9% (second compound 10 µM, first compound 0.01 µM); 89.7% under setting [22]; 97.7% under setting [23]; 85.9% under setting [24]; 93.2% under setting [25].
